From US9884832B2 (priority 2011, dated 2018)
Like-named read-outs stand apart in the source and are kept apart here.

How the values were obtained:
[1] = target: AM2 V27A (valine→alanine mutation at residue 27 in the M2 protein) (Influenza A virus, UniProt P0DOF5, V27A); assay type: cell-based, influenza virus A/Udorn/72
[2] = target: AM2 S31N (serine→asparagine mutation at residue 31 in the M2 protein) (Influenza A virus, UniProt P0DOF5, S31N); assay type: cell-based, influenza virus A/Udorn/72

| SMILES | V27A OOcyte Inhibition at 100 uM (%) ([1]; pH 5.5) | S31N OOcyte Inhibition at 100 uM (%) ([2]; pH 5.5) | V27A OOcyte Inhibition at 100 uM (%) [1] | S31N OOcyte Inhibition at 100 uM (%) [2] |
| --- | --- | --- | --- | --- |
| CSc1ccc(CNC23CC4CC(CC(C4)C2)C3)c(SC)c1 [Example 55, Adamantan-1-yl-(2,4-bis-methylsulfanyl-benzyl)-amine] | B (key: (A)=31-95%; (B)=0-30%) | B (key: (A)=31-95%; (B)=0-30%) |  |  |
| c1csc(-c2cc(CNC34CC5CC(CC(C5)C3)C4)no2)c1 [Example 142a, N-((5-(thiophen-2-yl)isoxazol-3-yl)methyl)adamantan-1-amine] |  |  | B (key: (A)=31-95%; (B)=0-30%) | A (key: (A)=31-95%; (B)=0-30%) |
| c1ccc2[nH]c(CNC34CC5CC(CC(C5)C3)C4)nc2c1 [Example 92, Adamantan-1-yl-(1H-benzoimidazol-2-ylmethyl)-amine] | B (key: (A)=31-95%; (B)=0-30%) | A (key: (A)=31-95%; (B)=0-30%) |  |  |
| c1cc2c(cc1CNC13CC4CC(CC(C4)C1)C3)OCO2 [Example 49] | B (key: (A)=31-95%; (B)=0-30%) | B (key: (A)=31-95%; (B)=0-30%) |  |  |
| c1csc(-c2ccc(CNC34CC5CC(CC(C5)C3)C4)s2)c1 [Example 78, N-([2,2′-Bithiophen]-5-ylmethyl)adamantan-1-amine] | B (key: (A)=31-95%; (B)=0-30%) | A (key: (A)=31-95%; (B)=0-30%) |  |  |
| COc1ccc(-c2nnc(CNC34CC5CC(CC(C5)C3)C4)o2)cc1 [Example 127a, N-((5-(4-methoxyphenyl)-1,3,4-oxadiazol-2-yl)methyl)adamantan-1-amine] |  |  | B (key: (A)=31-95%; (B)=0-30%) | A (key: (A)=31-95%; (B)=0-30%) |
| c1coc(-c2ccc(CNC34CC5CC(CC(C5)C3)C4)s2)c1 [Example 136a, N-((5-(Furan-2-yl)thiophen-2-yl)methyl)adamantan-1-amine] |  |  | B (key: (A)=31-95%; (B)=0-30%) | A (key: (A)=31-95%; (B)=0-30%) |
| c1cc2cc(CNC34CC5CC(CC(C5)C3)C4)sc2o1 [Example 83, Adamantan-1-yl-thieno[2,3-b]furan-5-ylmethyl-amine] | B (key: (A)=31-95%; (B)=0-30%) | A (key: (A)=31-95%; (B)=0-30%) |  |  |
| [O-][S+]1Cc2cc(CNC34CC5CC(CC(C5)C3)C4)sc2C1 (stereo not shown) [Example 85, Adamantan-1-yl-(5-oxo-5,6-dihydro-4H-5M-thieno[3,4-b]thiophen-2-ylmethyl)-amine] | B (key: (A)=31-95%; (B)=0-30%) | B (key: (A)=31-95%; (B)=0-30%) |  |  |
| Oc1cccc(CNC23CC4CC(CC(C4)C2)C3)c1O [Example 64, 3-(Adamantan-1-ylaminomethyl)-benzene-1,2-diol] | A (key: (A)=31-95%; (B)=0-30%) | B (key: (A)=31-95%; (B)=0-30%) |  |  |
| Oc1ccc(CNC23CC4CC(CC(C4)C2)C3)cc1F [Example 48, 4-(Adamantan-1-ylaminomethyl)-2-fluoro-phenol] | A (key: (A)=31-95%; (B)=0-30%) | A (key: (A)=31-95%; (B)=0-30%) |  |  |
| COc1ccc(CN(C)C23CC4CC(CC(C4)C2)C3)cc1 [Example 32, Adamantan-1-yl-(4-methoxy-benzyl)-methyl-amine] | B (key: (A)=31-95%; (B)=0-30%) | B (key: (A)=31-95%; (B)=0-30%) |  |  |
| COc1ccsc1CNC12CC3CC(CC(C3)C1)C2 [Example 74a, Adamantan-1-yl-(3-methoxy-thiophen-2-ylmethyl)-amine] |  |  | B (key: (A)=31-95%; (B)=0-30%) | A (key: (A)=31-95%; (B)=0-30%) |
| c1csc(-c2ccc(CNC34CC5CC(CC(C5)C3)C4)cc2)c1 [Example 29a, N-(4-(Thiophen-2-yl)benzyl)adamantan-1-amine methanesulfonate] |  |  | B (key: (A)=31-95%; (B)=0-30%) | A (key: (A)=31-95%; (B)=0-30%) |
| Clc1ccc(COc2ccc(CNC34CC5CC(CC(C5)C3)C4)cc2)cc1 [Example 16a, Adamantan-1-yl-[4-(4-chloro-benzyloxy)-benzyl]-amine] |  |  | B (key: (A)=31-95%; (B)=0-30%) | A (key: (A)=31-95%; (B)=0-30%) |
| Cn1cc(C(F)(F)F)c(-c2ccc(CNC34CC5CC(CC(C5)C3)C4)s2)n1 [Example 155a, N-((5-(1-methyl-4-(trifluoromethyl)-1H-pyrazol-3-yl)thiophen-2-yl)methyl)adamantan-1-amine] |  |  | B (key: (A)=31-95%; (B)=0-30%) | B (key: (A)=31-95%; (B)=0-30%) |

| SMILES | V27A OOcyte Inhibition at 100 uM (%) ([1]; pH 5.5) | S31N OOcyte Inhibition at 100 uM (%) ([2]; pH 5.5) | V27A OOcyte Inhibition at 100 uM (%) [1] | S31N OOcyte Inhibition at 100 uM (%) [2] |
| --- | --- | --- | --- | --- |
| Cc1ccsc1CNC12CC3CC(CC(C3)C1)C2 [Example 76a, N-((3-methylthiophen-2-yl)methyl)adamantan-1-amine] |  |  | B (key: (A)=31-95%; (B)=0-30%) | B (key: (A)=31-95%; (B)=0-30%) |
| COc1ccccc1CNC12CC3CC(CC(C3)C1)C2 [Example 29, Adamantan-1-yl-(2-methoxy-benzyl)-amine] | B (key: (A)=31-95%; (B)=0-30%) | B (key: (A)=31-95%; (B)=0-30%) |  |  |
| Oc1ccc(CNC23CC4CCC(CC(C4)C2)C3)c(O)c1 [Example 110, 4-(Tricyclo[4.3.1.13,8]undec-1-ylaminomethyl)-benzene-1,3-diol] | A (key: (A)=31-95%; (B)=0-30%) | A (key: (A)=31-95%; (B)=0-30%) |  |  |
| Cn1c(CNC23CC4CC(CC(C4)C2)C3)cc2sccc21 [Example 172a, Adamantan-1-yl-(4-methyl-4H-thieno[3,2-b]pyrrol-5-ylmethyl)-amine] |  |  | B (key: (A)=31-95%; (B)=0-30%) | B (key: (A)=31-95%; (B)=0-30%) |
| c1ccc2[nH]c(CNC34CC5CC(CC(C5)C3)C4)cc2c1 [Example 93, Adamantan-1-yl-(1H-indol-2-ylmethyl)-amine] | B (key: (A)=31-95%; (B)=0-30%) | A (key: (A)=31-95%; (B)=0-30%) |  |  |
| c1ccc(Oc2ccc(CNC34CC5CC(CC(C5)C3)C4)cc2)cc1 [Example 13a, Adamantan-1-yl-(4-phenoxy-benzyl)-amine] |  |  | B (key: (A)=31-95%; (B)=0-30%) | A (key: (A)=31-95%; (B)=0-30%) |
| Oc1ccc(CNC23CC4CC(CC(C4)C2)C3)c(O)c1 [Example 46, 4-(Adamantan-1-ylaminomethyl)-benzene-1,3-diol] | A (key: (A)=31-95%; (B)=0-30%) | A (key: (A)=31-95%; (B)=0-30%) |  |  |
| c1csc(-c2ncc(CNC34CC5CC(CC(C5)C3)C4)cn2)c1 [Example 61a, N-((2-(thiophen-2-yl)pyrimidin-5-yl)methyl)adamantan-1-amine] |  |  | B (key: (A)=31-95%; (B)=0-30%) | A (key: (A)=31-95%; (B)=0-30%) |
| Oc1cc(OCc2ccccc2)ccc1CNC12CC3CC(CC(C3)C1)C2 [Example 37a, 2-(Adamantan-1-ylaminomethyl)-5-benzyloxy-phenol] |  |  | B (key: (A)=31-95%; (B)=0-30%) | A (key: (A)=31-95%; (B)=0-30%) |
| COc1cccc(COc2ccc(CNC34CC5CC(CC(C5)C3)C4)cc2)c1 [Example 14a, Adamantan-1-yl-[4-(3-methoxy-benzyloxy)-benzyl]-amine] |  |  | B (key: (A)=31-95%; (B)=0-30%) | A (key: (A)=31-95%; (B)=0-30%) |
| O=[N+]([O-])c1ccc(CNC23CC4CC(CC(C4)C2)C3)cc1 [Example 19, Adamantan-1-yl-(4-nitro-benzyl)-amine] | B (key: (A)=31-95%; (B)=0-30%) | B (key: (A)=31-95%; (B)=0-30%) |  |  |
| OC1CCC(CNC23CC4CC(CC(C4)C2)C3)CC1 (stereo not shown) [Example 170a, 4-(Adamantan-1-ylaminomethyl)-cyclohexanol] |  |  | B (key: (A)=31-95%; (B)=0-30%) | B (key: (A)=31-95%; (B)=0-30%) |
| CC1(C)C2CCC(CNCc3ccc(O)cc3O)C1C2 (stereo not shown) [Example 114, 4-{[(6,6-Dimethyl-bicyclo[3.1.1]hept-2-ylmethyl)-amino]methyl}-benzene-1,3-diol] | B (key: (A)=31-95%; (B)=0-30%) | B (key: (A)=31-95%; (B)=0-30%) |  |  |
| Oc1ccc(/C=N/C23CC4CC(CC(C4)C2)C3)cc1 [Example 6] | B (key: (A)=31-95%; (B)=0-30%) | B (key: (A)=31-95%; (B)=0-30%) |  |  |
| c1ccn2c(CNC34CC5CC(CC(C5)C3)C4)cnc2c1 [Example 203a, Adamantan-1-yl-imidazo[1,2-a]pyridin-3-ylmethyl-amine] |  |  | B (key: (A)=31-95%; (B)=0-30%) | B (key: (A)=31-95%; (B)=0-30%) |
| COc1cc(O)cc(OC)c1CNC12CC3CC(CC(C3)C1)C2 [Example 66, 4-(Adamantan-1-ylaminomethyl)-3,5-dimethoxy-phenol] | B (key: (A)=31-95%; (B)=0-30%) | B (key: (A)=31-95%; (B)=0-30%) |  |  |
